Columns and labels:
[1] = molecular target: T1, Glycogen Synthase Kinase 3 alpha (Homo sapiens, UniProt P49840); experiment: In-lysate competition binding with kinobeads, Jurkat lysate, iTRAQ MS; conditions: for Relative Intensity, GSK3A: DMSO control = 1.0
T1 construct: endogenous in cells; host or cells: Jurkat clone E6-1 lysate
Method: (§1) This example illustrates competition binding in cell lysates (see particularly the third aspect of the invention). A test compound, Bisindolylmaleimide VIII (Bis VIII, a well known kinase inhibitor; Davies et al., 2000. Specificity and mechanism of action of some commonly used protein kinase inhibitors. Biochemical Journal 351 (Pt 1): 95-105) was added to a cell lysate thereby allowing the test compound to bind to the target proteins in the lysate. Then the lysate was contacted with the kinobeads affinity matrix to capture remaining free target proteins. The proteins bound to the kinobeads matrix were then eluted with detergent-containing buffer, separated on a SDS-polyacryamide gel and analyzed by immunodetection (Western blots) or mass spectrometry detection.
(§2) For the quantitative detection of proteins by mass spectrometry proteins were eluted from the affinity matrix and subsequently separated by SDS-Polyacrylamide gel elecrophoresis. Suitable gel areas were cut out and subjected to in-gel proteolytic digestion with trypsin.
(§3) Four tryptic digest samples (corresponding to three different Bis VIII concentrations in the lysate and one DMSO control) were labeled with ITRAQ reagents and the combined samples were analyzed in a single LC-MS/MS mass spectrometry analysis followed by peak quantification in the MS/MS spectrum (Ross et al., 2004. Multiplexed protein quantitation in Saccharomyces cerevisiae using amine-reactive isobaric tagging reagents. Mol. Cell. Proteomics 3(12): 1154-1169). […] Binding curves for individual kinases are shown (FIG. 5). The relative intensity 50 (RI50) values representing the affinity of kinase-compound pairs are similar to IC50 values reported by kinase enzyme assays (Davies et al., 2000. Specificity and mechanism of action of some commonly used protein kinase inhibitors. Biochemical Journal 351 (Pt 1): 95-105).
(§4) Aliqots of Jurkat lysate (10 mg protein) were incubated with different Bis VIII concentrations for one hour at 4° C. (0.025 μM, 0.074 μM, 0.22 μM, 0.67 μM, 2.0 μM and 6.0 μM final concentration of Bis VIII). To this end Bis VIII solutions were prepared in 100% DMSO as solvent that corresponded to 200 fold desired final Bis VIII concentration (Bis VIII from Alexis Biochemicals cat. number ALX 270-056). Five μl of these solutions were added to 1 ml of lysate resulting in the indicated final concentrations. For a control experiment 5 μl of DMSO without Bis VIII were used.
(§5) To each preincubated lysate sample 40 μl of kinobeads (see example 1) were added and incubated for one hour at 4° C. During the incubation the tubes were rotated on an end-over-end shaker (Roto Shake Genie, Scientific Industries Inc.). Beads were collected by centrifugation, transfered to Mobicol-columns (MoBiTech 10055) and washed with 10 ml 1×DP buffer containing 0.4% NP40 detergent, followed by a wash with 5 ml 1×DP buffer with 0.2% NP40. To elute the bound proteins, 100 μl 2×SDS sample buffer was added, the column was heated for 30 minutes at 50° C. and the eluate was transferred to a microfuge tube by centrifugation. Proteins were then separated by SDS-Polyacrylamide electrophoresis (SDS-PAGE). The composition and preparation of buffers is described in example 2.
(§6) The peptide extracts of samples treated with different concentrations of the test compound (0.074 μM, 0.22 μM and 0.67 μM Bis VIII) and the solvent control (0.5% DMSO) were treated with different isomers of the isobaric tagging reagent (iTRAQ Reagents Multiplex Kit, part number 4352135, Applied Biosystems, Foster City, Calif., USA). The iTRAQ reagents are a set of multiplexed, amine-specific, stable isotope reagents that can label all peptides in up to four different biological samples enabling simultaneous identification and quantitation of peptides. The iTRAQ reagents were used according to instructions provided by the manufacturer. […]

[2] = molecular target: T2, Glycogen Synthase Kinase 3 beta (Homo sapiens, UniProt P49841); experiment: as above; conditions: for Relative Intensity, GSK3B: DMSO control = 1.0
T2 construct: Aliqots of Jurkat lysate (10 mg protein) were incubated with different Bis VIII concentrations; endogenous in cells; host or cells: Jurkat clone E6-1 lysate
Method: as §1, §2, §3, §4, §5, §6

[3] = molecular target: T3, protein kinase C alpha (Homo sapiens, UniProt P17252); experiment: as above; conditions: for Relative Intensity, PKCa (PRKCA): DMSO control = 1.0
T3 construct: Aliqots of Jurkat lysate (10 mg protein) were incubated with different Bis VIII concentrations; endogenous in cells; host or cells: Jurkat clone E6-1 lysate
Method: as §1, §2, §3, §4, §5, §6

[4] = molecular target: protein kinase C beta (Homo sapiens, UniProt P05771); experiment: as above; conditions: for Relative Intensity, PKCb (PRKCB1): DMSO control = 1.0
Method: as §1, §2, §3, §4, §5, §6

[5] = molecular target: T4, proteins captured on kinobeads from Jurkat cell lysate (Homo sapiens, UniProt P07947); experiment: In-lysate competition binding with kinobeads, Jurkat lysate, iTRAQ MS, relative intensity of identified proteins (Table 22); conditions: DMSO control = 1.0
T4 construct: endogenous in cells; host or cells: Jurkat clone E6-1 lysate

[6] = molecular target: T5, proteins captured on kinobeads from Jurkat cell lysate (Homo sapiens, UniProt Q2M2I8); experiment: as above; conditions: DMSO control = 1.0
T5 construct: endogenous in cells; host or cells: Jurkat clone E6-1 lysate
T5 sequence (Q2M2I8 whole entry): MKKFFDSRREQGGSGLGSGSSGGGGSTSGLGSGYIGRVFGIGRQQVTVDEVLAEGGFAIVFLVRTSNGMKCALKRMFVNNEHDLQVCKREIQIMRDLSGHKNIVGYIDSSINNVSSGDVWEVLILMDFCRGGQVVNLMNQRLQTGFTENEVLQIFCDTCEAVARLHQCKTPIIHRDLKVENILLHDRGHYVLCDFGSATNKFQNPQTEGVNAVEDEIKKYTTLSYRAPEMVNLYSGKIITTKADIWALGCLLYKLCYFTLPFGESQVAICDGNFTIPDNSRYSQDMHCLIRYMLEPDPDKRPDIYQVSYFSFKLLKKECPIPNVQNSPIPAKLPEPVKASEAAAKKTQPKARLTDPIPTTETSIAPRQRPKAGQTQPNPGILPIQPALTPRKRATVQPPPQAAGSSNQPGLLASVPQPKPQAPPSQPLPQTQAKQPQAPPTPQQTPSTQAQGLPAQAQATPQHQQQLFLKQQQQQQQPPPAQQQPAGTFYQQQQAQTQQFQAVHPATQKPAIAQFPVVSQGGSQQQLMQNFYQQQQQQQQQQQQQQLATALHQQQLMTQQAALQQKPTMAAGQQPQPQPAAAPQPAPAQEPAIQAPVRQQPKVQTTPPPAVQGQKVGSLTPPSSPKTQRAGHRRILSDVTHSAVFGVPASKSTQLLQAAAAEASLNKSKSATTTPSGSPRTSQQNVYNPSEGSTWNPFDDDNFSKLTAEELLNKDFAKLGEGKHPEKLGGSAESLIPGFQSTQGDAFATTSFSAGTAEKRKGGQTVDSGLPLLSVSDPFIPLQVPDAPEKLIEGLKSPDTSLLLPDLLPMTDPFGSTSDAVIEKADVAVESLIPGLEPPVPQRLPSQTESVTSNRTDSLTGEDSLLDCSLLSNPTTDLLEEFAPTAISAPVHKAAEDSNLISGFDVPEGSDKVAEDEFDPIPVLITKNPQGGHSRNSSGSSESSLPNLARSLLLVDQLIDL

Chain of protein kinase C beta (P05771 whole entry): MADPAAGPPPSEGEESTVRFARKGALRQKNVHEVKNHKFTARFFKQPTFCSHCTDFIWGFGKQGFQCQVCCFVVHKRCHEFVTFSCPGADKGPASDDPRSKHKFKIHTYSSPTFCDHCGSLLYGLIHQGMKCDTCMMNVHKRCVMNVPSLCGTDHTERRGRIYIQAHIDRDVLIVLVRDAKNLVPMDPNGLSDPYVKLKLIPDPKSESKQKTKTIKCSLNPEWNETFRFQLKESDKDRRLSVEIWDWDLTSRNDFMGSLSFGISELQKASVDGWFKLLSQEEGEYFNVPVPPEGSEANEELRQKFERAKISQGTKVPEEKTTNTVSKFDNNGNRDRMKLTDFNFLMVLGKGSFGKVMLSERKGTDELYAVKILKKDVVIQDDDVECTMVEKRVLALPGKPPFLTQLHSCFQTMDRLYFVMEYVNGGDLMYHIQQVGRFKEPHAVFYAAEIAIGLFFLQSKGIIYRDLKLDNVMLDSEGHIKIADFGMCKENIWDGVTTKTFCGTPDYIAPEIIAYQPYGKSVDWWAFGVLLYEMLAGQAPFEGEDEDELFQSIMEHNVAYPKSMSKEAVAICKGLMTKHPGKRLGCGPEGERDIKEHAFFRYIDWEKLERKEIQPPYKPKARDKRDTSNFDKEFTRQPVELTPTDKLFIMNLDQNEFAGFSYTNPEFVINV
T1 sequence (P49840 whole entry): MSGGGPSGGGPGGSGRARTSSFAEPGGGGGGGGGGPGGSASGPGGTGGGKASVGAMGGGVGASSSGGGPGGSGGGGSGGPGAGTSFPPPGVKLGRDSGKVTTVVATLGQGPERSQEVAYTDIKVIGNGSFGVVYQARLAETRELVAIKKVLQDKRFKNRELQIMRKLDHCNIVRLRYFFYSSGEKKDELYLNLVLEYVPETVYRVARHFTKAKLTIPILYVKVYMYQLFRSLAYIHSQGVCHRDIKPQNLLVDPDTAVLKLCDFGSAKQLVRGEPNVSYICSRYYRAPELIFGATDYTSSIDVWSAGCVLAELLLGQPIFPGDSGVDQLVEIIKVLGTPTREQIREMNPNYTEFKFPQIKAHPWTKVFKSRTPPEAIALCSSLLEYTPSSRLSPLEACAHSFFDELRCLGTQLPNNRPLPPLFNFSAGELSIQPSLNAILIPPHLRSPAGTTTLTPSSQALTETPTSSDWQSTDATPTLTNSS
T2 sequence (P49841 whole entry): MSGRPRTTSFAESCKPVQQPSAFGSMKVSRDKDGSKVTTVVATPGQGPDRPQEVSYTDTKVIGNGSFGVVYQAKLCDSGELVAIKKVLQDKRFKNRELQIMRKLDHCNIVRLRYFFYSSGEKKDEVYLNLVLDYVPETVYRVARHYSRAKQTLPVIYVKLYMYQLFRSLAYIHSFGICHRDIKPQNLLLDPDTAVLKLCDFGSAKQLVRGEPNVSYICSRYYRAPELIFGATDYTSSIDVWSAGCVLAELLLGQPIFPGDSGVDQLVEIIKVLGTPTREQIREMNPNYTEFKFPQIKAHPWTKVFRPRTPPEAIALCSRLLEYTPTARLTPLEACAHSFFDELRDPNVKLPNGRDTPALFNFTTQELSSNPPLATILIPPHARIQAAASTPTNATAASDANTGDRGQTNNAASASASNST
T4 sequence (P07947 whole entry): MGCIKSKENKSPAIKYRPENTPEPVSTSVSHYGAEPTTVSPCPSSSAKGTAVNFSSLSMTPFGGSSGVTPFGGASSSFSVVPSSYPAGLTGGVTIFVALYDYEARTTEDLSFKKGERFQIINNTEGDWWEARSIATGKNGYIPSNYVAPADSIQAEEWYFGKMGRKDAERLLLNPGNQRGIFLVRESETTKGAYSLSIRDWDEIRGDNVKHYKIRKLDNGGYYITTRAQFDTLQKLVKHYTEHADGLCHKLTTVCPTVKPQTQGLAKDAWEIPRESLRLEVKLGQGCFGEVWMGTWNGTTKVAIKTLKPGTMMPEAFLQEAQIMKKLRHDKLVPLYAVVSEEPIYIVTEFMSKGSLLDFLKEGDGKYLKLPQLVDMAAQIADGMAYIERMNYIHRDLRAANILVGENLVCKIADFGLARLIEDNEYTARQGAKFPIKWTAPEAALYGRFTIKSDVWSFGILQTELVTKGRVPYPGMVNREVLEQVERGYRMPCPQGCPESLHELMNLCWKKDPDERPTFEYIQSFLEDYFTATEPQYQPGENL

- Relative Intensity, GSK3A ([1]; 0.074 uM in lysate): 0.50
- Relative Intensity, GSK3A ([1]; 0.67 uM in lysate): 0.20
- IC50 ([1]; Jurkat cell lysate, concentration at which relative intensity of the MS signal is 50% of DMSO control, read-out: RI50 (GSKa)): 72.7 nM
- Relative Intensity, GSK3B ([2]; 0.074 uM in lysate): 0.54
- Relative Intensity, GSK3B ([2]; 0.67 uM in lysate): 0.28
- IC50 ([2]; Jurkat cell lysate, concentration at which relative intensity of the MS signal is 50% of DMSO control, read-out: RI50 (GSKb)): 95 nM
- Relative Intensity, PKCa (PRKCA) ([3]; 0.074 uM in lysate): 0.25
- Relative Intensity, PKCa (PRKCA) ([3]; 0.67 uM in lysate): 0.18
- IC50 ([3]; Jurkat cell lysate, concentration at which relative intensity of the MS signal is 50% of DMSO control, read-out: RI50 (PKCa)): 12.2 nM
- Relative Intensity, PKCb (PRKCB1) ([4]; 0.074 uM in lysate): 0.29
- Relative Intensity, PKCb (PRKCB1) ([4]; 0.67 uM in lysate): 0.17
- IC50 ([4]; Jurkat cell lysate, concentration at which relative intensity of the MS signal is 50% of DMSO control, read-out: RI50 (PKCb)): 21.5 nM
- Relative Intensity, YES (YES1) ([5]; 0.074 uM in lysate): 0.82
- Relative Intensity, YES (YES1) ([5]; 0.67 uM in lysate): 0.87
- Relative Intensity, AAK1 ([6]; 0.074 uM in lysate): 0.82
- Relative Intensity, AAK1 ([6]; 0.67 uM in lysate): 0.75
Structure (SMILES): Cn1cc(C2=C(c3cn(CCCN)c4ccccc34)C(=O)NC2=O)c2ccccc21 [Bis VIII, Bisindolylmaleimide VIII]

Source: patent publication US20090238808A1, “Process for the identification of novel enzyme interacting compounds” (priority 2005, published 2009)
